Experimental data as given in patent US9845296B2 (dated 2017).

SMILES: CN(C)c1cc2[nH]c(C3CCCCC3)nc2cc1N
- melting point: 135 to 137 °C

SMILES: COc1cccc(C(=O)Nc2cc3nc(C4CCCCC4)[nH]c3cc2N(C)C)c1OC
- melting point: 173 to 174 °C

SMILES: CN(C)c1cc2[nH]c(C3CCCCC3)nc2cc1NC(=O)c1ccc(F)cc1
- melting point: 196 to 197 °C

SMILES: CN(C)c1cc2[nH]c(C3CCCCC3)nc2cc1NC(=O)c1ccc(OC(F)F)cc1
- melting point: 183 to 185 °C
